Consider one compound from patent US6713051B2, “Antiperspirant or deodorant compositions” (Unilever Home & Personal Care USA division of Conopco, Inc., priority 2001, dated 2004).

This assay has as its system Human foreskin keratinocytes. Kind of assay: Keratinocyte proliferation analysis (DNA content per well, Pico Green). As to conditions: for DNA: 4 days, control (0 μM) 3.5. It counts as cell-based. The procedure: Human foreskin keratinocytes (passage 3) were seeded at 4000 cells/well in 96 well plates in Keratinocyte Growth Medium (abbreviated to KGM) containing 0.03 mM calcium and grown for 3 days at 37° C. The cells were then treated with PPAR ligands in KGM containing 0.03 mM calcium for 4 days prior to harvest. Stock solutions of PPAR ligands were dissolved in dimethylsulphoxide (DMSO) and diluted in KGM before adding to the cells. […] The harvested cells were washed 3× in phosphate buffered saline (PBS) and extracted in 1% Triton X100, 50 mM (tris[hydroxymethyl]aminomethane) (Tris) pH 8.0 plus protease inhibitors pepstatin and leupeptin (100 μl/well). The extract was assayed for DNA content using the Pico Green DNA assay (Molecular Probes, Inc.).
Cultured keratinocytes were treated with cis-9-trans-11 conjugated linoleic acid (CT-CLA) for 4 days. The cells were extracted with Tris-1% Triton X100 and the DNA content per well was determine by the Pico Green assay in accordance with the above described procedure.

Regarding `CC\C=C/C=C/C=C/C=C\CCCCCCCC(=O)O` [cis parinaric acid, cis-parinaric acid], the “keratinocyte DNA synthesis activity, statement” value (Example 12: 10 and 20 μM, 1 way ANOVA, p<0.05) was “significantly reduce”. This compound gave a DNA (Table 13: 1 μM) of 3.3 ng/well, a DNA (Table 13: 5 μM) of 4.1 ng/well, a DNA (Table 13: 10 μM) of 2.6 ng/well and a DNA (Table 13: 20 μM) of 1.5 ng/well.
